Source: patent US10508123B2, “Polymorphs” (Vectura Limited, priority 2015, dated 2019)
Each block holds one compound with its values, some of them ahead of it.

Tests used:
[1] = Competitive slurrying experiments (solid form by XRPD after one week); assay type: physicochemical
Experimental: 10 mg (+/−1 mg) each of the Form I, Form II, Form III, 1,2-dimethoxtethane solvate and the hydrate of (S)-3-(3-(1-methyl-2-oxo-5-(pyrazolo[1,5-a]pyridine-3-yl)-1H-imidazo[4,5-b]pyridine-3(2H)-yl)piperidin-1-yl)-3-oxopropanenitrile was added to each of twelve vials. The solvent systems used had been pre-saturated with (S)-3-(3-(1-methyl-2-oxo-5-(pyrazolo[1,5-a]pyridine-3-yl)-1H-imidazo[4,5-b]pyridine-3(2H)-yl)piperidin-1-yl)-3-oxopropanenitrile by shaking a slurry of Form I at the relevant temperature for 16 hours and then passing through a 1 μm glass filter.
The resulting slurries were agitated at the temperature shown for a period of one week. The solids present were then isolated by filtration, air dried and characterised by XRPD.

[2] = Solubility of the compound in water (remark in the slurrying results); assay type: physicochemical

Structure (SMILES): Cn1c(=O)n([C@H]2CCCN(C(=O)CC#N)C2)c2nc(-c3cnn4ccccc34)ccc21 [Form I, (S)-3-(3-(1-methyl-2-oxo-5-(pyrazolo[1,5-a]pyridine-3-yl)-1H-imidazo[4,5-b]pyridine-3(2H)-yl)piperidin-1-yl)-3-oxopropanenitrile]
form visible in the isolated solids ([1]; all vials, except one of the experiments in water): No Form I or Form III material was visible

thermodynamic stability among the three anhydrous forms ([1]; at all three temperatures evaluated (5, 25, 50 °C)): most thermodynamically stable
thermodynamic stability compared to the other polymorphic forms or the solvates and hydrates ([1]; at temperatures up to 50 °C): greater thermodynamic stability
Structure (SMILES): Cn1c(=O)n([C@H]2CCCN(C(=O)CC#N)C2)c2nc(-c3cnn4ccccc34)ccc21 [Form II, (S)-3-(3-(1-methyl-2-oxo-5-(pyrazolo[1,5-a]pyridine-yl)-1H-imidazo[45-b]pyridine-3(2H)-yl)piperidin-1-yl)-3-oxopropanenitrile]
thermodynamic stability compared to the Form 1 and Form III polymorphs ([1]; competitive slurrying experiments): surprisingly advantageous thermodynamic stability

XRPD characterisation ([1]; vial 1, water, 5 °C, slurry of Form I, II, III, 1,2-dimethoxyethane solvate and hydrate agitated one week, poor recovery hampered interpretation): Form II/Hydrate*
XRPD characterisation ([1]; vial 2, water, 25 °C, mixed-form slurry, one week): Form II/Form III/Hydrate
XRPD characterisation ([1]; vial 3, water, 50 °C, mixed-form slurry, one week): Form II
XRPD characterisation ([1]; vial 4, MEK, 5 °C, mixed-form slurry, one week): Form II
XRPD characterisation ([1]; vial 5, MEK, 25 °C, mixed-form slurry, one week): Form II
XRPD characterisation ([1]; vial 6, MEK, 50 °C, mixed-form slurry, one week): Form II
XRPD characterisation ([1]; vial 7, EtOAc, 5 °C, mixed-form slurry, one week): Form II/1,2-dimethoxyethane solvate
XRPD characterisation ([1]; vial 8, EtOAc, 25 °C, mixed-form slurry, one week): Form II/1,2-dimethoxyethane solvate
XRPD characterisation ([1]; vial 9, EtOAc, 50 °C, mixed-form slurry, one week): Form II
XRPD characterisation ([1]; vial 10, IPA, 5 °C, mixed-form slurry, one week): Form II
XRPD characterisation ([1]; vial 11, IPA, 25 °C, mixed-form slurry, one week): Form II/1,2-dimethoxyethane solvate
XRPD characterisation ([1]; vial 12, IPA, 50 °C, mixed-form slurry, one week): Form II
solubility in water [2]: poor solubility
Structure (SMILES): Cn1c(=O)n([C@H]2CCCN(C(=O)CC#N)C2)c2nc(-c3cnn4ccccc34)ccc21 [Compound (I), (S)-3-(3-(1-methyl-2-oxo-5-(pyrazolo[1,5-a]pyridine-3-yl)-1H-imidazo[4,5-b]pyridine-3(2H)-yl)piperidin-1-yl)-3-oxopropanenitrile]

stability of the hydrate relative to anhydrous Form II ([1]; in organic solvents): less stable than the anhydrous Form II
conversion of the hydrate in the slurry ([1]; water at 50 °C, not at 25 °C or 5 °C): complete conversion to Form II
Structure (SMILES): Cn1c(=O)n([C@H]2CCCN(C(=O)CC#N)C2)c2nc(-c3cnn4ccccc34)ccc21 [Hydrate I, (S)-3-(3-(1-methyl-2-oxo-5-(pyrazolo[1,5-a]pyridine-3-yl)-1H-imidazo[4,5-b]pyridine-3(2H)-yl)piperidin-1-yl)-3-oxopropanenitrile]
